# According to patent EP0872239A2 (ELI LILLY AND COMPANY, priority 1997, dated 1998):
# How the values were obtained:
# 5-HT1C receptor = biological target: T1, 5-HT1C receptor (Homo sapiens, UniProt P28335); assay: pharmacological studies, 5-HT1C receptor activity; conditions: stated in words only
# T1 sequence (P28335 33-458): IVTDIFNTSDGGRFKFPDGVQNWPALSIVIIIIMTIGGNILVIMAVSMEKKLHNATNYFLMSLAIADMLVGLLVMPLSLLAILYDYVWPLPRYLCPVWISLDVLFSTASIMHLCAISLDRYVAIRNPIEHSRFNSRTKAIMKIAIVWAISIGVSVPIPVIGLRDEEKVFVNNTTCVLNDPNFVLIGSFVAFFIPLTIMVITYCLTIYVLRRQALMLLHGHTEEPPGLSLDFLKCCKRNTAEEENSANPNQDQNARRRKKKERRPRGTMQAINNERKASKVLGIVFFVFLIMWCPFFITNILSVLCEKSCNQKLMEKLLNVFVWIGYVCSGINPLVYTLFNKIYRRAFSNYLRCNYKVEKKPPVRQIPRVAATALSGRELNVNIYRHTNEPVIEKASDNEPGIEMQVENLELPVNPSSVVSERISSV
# cerebral focal stroke = assay: experimental stroke / cerebral ischemia models (Assays 2 and 3); assay type: in vivo, rats; conditions: general statement on "such experiments"; no data given
# Description: The methodology for testing the compound's effect in ameliorating ischemic cell damage after transient middle cerebral artery occlusion (Zhang, et al., Stroke 26, 1438-43, 1995) is given as one example.
# Male rats weighing approximately 300 grams are anesthetized with 3.5% halothane and maintained with 1.0% halothane in 70% N2O and 30% O2 with the use of a face mask. Rectal remperature is maintained at 37°C throughout the surgical procedure. The right femoral artery and vein are cannulated for measuring blood gases before inducing ischemia, monitoring blood pressure during the surgery and administering compound.
# Approximately 18 mm of 4-0 surgical nylon suture with a rounded tip is advanced from the external carotid artery into the lumen of the internal carotid artery until it blocks the origin of the middle cerebral artery (MCA). […] Infarct volume is measured blindly with the use of a Global Lab Image analysis program (Data Translation). The infarct area and the ipsilateral and contralateral hemispheric area are calculated in square millimeters by tracing the right and left hemispheres and the ischemic lesion on the computer screen. The volumes in cubic millimeters are determined by multiplying the area by the section interval thickness. Infarct volume is analyzed as a percentage of the whole hemisphere. […]
# [1] = system: muscarinic cholinergic receptor; assay: pharmacological studies, muscarinic cholinergic receptor activity; conditions: stated in words only
compound,measurement,setting,value
"Cc1cc2c(s1)Nc1ccccc1N=C2N1CCN(C)CC1 [olanzapine, 2-methyl-4-(4-methyl-1-piperazinyl)-10H-thieno [2,3-b] [1,5] benzodiazepine]",active at the 5-HT1C receptor,5-HT1C receptor,active
same,effect in the treatment or inhibition of cerebral focal stroke,cerebral focal stroke,significant effect
same,muscarinic cholinergic receptor activity,[1],has muscarinic cholinergic receptor activity
